Results published in patent US9814758B2, “Inhibitors of apoptosis and uses thereof” (CENTRE NATIONAL DE LA RECHERCHE SCIENTIFIQUE-CNRS, priority 2010, dated 2017).
Non-standard residues stand in square brackets, D forms with d. Residues, ends and D or L forms follow the SMILES beside them. No end group written: not given here. Ahx = NCCCCCC(=O)O

System: primary cardiomyocytes
Assay: STS-induced DNA fragmentation (Cell Death detection ELISA PLUS) in primary cardiomyocytes
Assay type: cell-based, mouse
Conditions: for reduction of DNA fragmentation: peptide given together with staurosporine, 1 μM, related to STS-treated cells (=100%), FIG. 5B
Description: FIG. 5: In vitro evaluation of the anti-apoptotic activity of CPPs and CPP-conjugates. Workflow and quantitation of DNA fragmentation in (A) C2C12 cells, (B) primary cardiomyocytes, (C) H9c2 cells and (D) NG108-15 cells. Data were normalized to 100% STS. Data shown are the means±SEM, with n≧5. Cells were seeded in 24-well plates and grown overnight. The next day, the cells were incubated with STS alone or with STS+1 μM peptide (in OPTI-MEM) (OPTI-MEM® is a modification of Eagle's Minimum Essential Media, buffered with HEPES and sodium bicarbonate, and supplemented with hypoxanthine, thymidine, sodium pyruvate, L-glutamine, trace elements, and growth factors) (STS concentration and incubation time for each cells are given in the figure). Thereafter, solutions were removed, replaced by complete medium and further incubated for 40 h. Following the regeneration phase, the cells were lyzed and DNA fragmentation was detected according to manufacturer's instructions (Cell Death detection ELISA^PLUS kit—Roche Diagnostics).
FIG. 6: Anti-apoptotic activity of variants of the Tat-DAXXp sequence on primary cardiomyocytes. As described in the caption of FIG. 5, the different analogues of the DAXXp sequence (see Table 2) were assessed for anti-apoptotic properties against STS (Cell Death detection ELISA^PLUS kit—Roche Diagnostics) (A-B). None of the analogues were able to protect the primary cardiomyocytes—a fact which confirms that the 16mer DAXXp has the optimal length and sequence for highest cardioprotective effect.
FIG. 7: Comparison of the murine/rat DAXXp with the human DAXXp sequence in terms of anti-apoptotic activity on C2C12 cells, primary cardiomyocytes, and H9c2. The murine DAXXp sequence conjugated to Tat (Tat-mDAXXp—SEQ ID NO: 61) which is identical to the rat DAXXp sequence (see FIG. 1B), was compared to the human construct (Tat-DAXXp) in terms of anti-apoptotic properties against STS (Cell Death detection ELISA^PLUS kit—Roche Diagnostics). The C2C12 cells and the primary cardiomyocytes used were from mice and the H9c2 cells from rat.
FIG. 9: Comparison of FADDp constructs with Tat-DAXXp in terms of anti-apoptotic activity in primary cardiomyocytes and in H9c2 cells. Quantification of DNA normalized to 100% STS. Data shown are the means±SEM, with n≧5. Cells were seeded in 24-well plates and grown overnight. The next day, the cells were incubated with STS alone or with STS+1 μM peptide (in OPTI-MEM®) (OPTI-MEM® is a modification of Eagle's Minimum Essential Media, buffered with HEPES and sodium bicarbonate, and supplemented with hypoxanthine, thymidine, sodium pyruvate, L-glutamine, trace elements, and growth factors) (STS concentration is given in the figure and incubation time is given in FIG. 5). Thereafter, solutions were removed, replaced by complete medium and further incubated for 40 hours. Following the regeneration phase, the cells were lyzed and DNA fragmentation was detected according to manufacturer's instructions (Cell Death detection ELISA^PLUS kit—Roche Diagnostics).
FIG. 10: Comparison of Tat-DAXXp and Tat-FADDp15 alone and in combination in primary cardiomyocytes (A) and in H9c2 cells (B).
Thereafter, the capacity of these peptides to inhibit apoptosis induced by staurosporine was evaluated. Apoptosis was determined using the Cell Death detection ELISA^PLUS kit (Roche) measuring the DNA fragmentation.
In most publications, anti-apoptotic peptides currently available in the art are administrated 3-4 hours prior to apoptosis induction, which is poorly relevant to a clinical application. For that reason, the protocol used in the present study included administration of the peptides together with the staurosporine. […] This was not observed with CPP alone or with the Tat-scrDAXXp or Tat-ncDAXXp negative controls. […] To better compare the results, the DNA fragmentation (described by the enrichment factor) is related to the staurosporine-treated cells (=100%).

CC[C@H](C)[C@H](NC(=O)[C@H](Cc1c[nH]cn1)NC(=O)[C@@H](NC(=O)[C@H](CCCNC(=N)N)NC(=O)CCCCCNC(=O)[C@H](CCCNC(=N)N)NC(=O)[C@H](CCCNC(=N)N)NC(=O)CCCCCNC(=O)[C@H](CCCNC(=N)N)NC(=O)[C@H](CCCNC(=N)N)NC(=O)CCCCCNC(=O)[C@@H](N)CCCNC(=N)N)[C@@H](C)CC)C(=O)N[C@@H](CC(C)C)C(=O)N[C@@H](Cc1ccccc1)C(=O)N[C@@H](CCC(N)=O)C(=O)N[C@@H](CC(N)=O)C(=O)N[C@H](CCCNC(=N)N)C(=O)N[C@@H](CCCNC(=N)N)C(=O)N[C@@H](CCSC)C(=O)N[C@@H](CCCCN)C(=O)N[C@@H](Cc1c[nH]c2ccccc12)C(=O)N[C@@H](Cc1c[nH]cn1)C(=O)N[C@@H](CCCCN)C(=O)N[C@@H](CCCCN)C(=O)N[C@@H](CCCCN)C(=O)N[C@@H](CO)C(=O)N[C@@H](CCCNC(=N)N)C(=O)N[C@@H](CCCCN)C(=O)N[C@@H](CCC(=O)O)C(=O)N[C@@H](CCCCN)C(=O)N[C@@H](CCCCN)C(=O)N[C@@H](CCC(N)=O)C(=O)N[C@H](C(=O)NCC(=O)N[C@@H](CO)C(=O)NCC(=O)N1CCC[C@H]1C(=O)N[C@@H](CC(C)C)C(=O)NCC(N)=O)[C@@H](C)O [Pip2b-DAXXp, (RXR)3-IHILFQNrRMKWHK-KKSRKEKKQTGSGPLG-NH2] (H-R[Ahx]RR[Ahx]RR[Ahx]RIHILFQN[dR]RMKWHKKKSRKEKKQTGSGPLG-NH2; N-terminus assumed)
reduction of DNA fragmentation: 55%

GRKKRRQRRRPPQKKSRKEKKQTGSGPLG-NH2 [Tat-DAXXp, GRKKRRQRRRPPQ-KKSRKEKKQTGSGPLG-NH2]
reduction of DNA fragmentation: 44%

KKSRKEKKQTGSGPLG-NH2 [DAXXp, KKSRKEKKQTGSGPLG-NH2]
ability to decrease cell apoptosis / protect the cells (against STS): capable of decreasing cell apoptosis
